# Article PMC6968587, “Discovery of 3-alkyl-5-aryl-1-pyrimidyl-1H-pyrazole derivatives as a novel selective inhibitor scaffold of JNK3” (Journal of Enzyme Inhibition and Medicinal Chemistry, 2019)
# Read-outs that look alike come from different tables or passages of the source.
# Legend:
# Type in all cases: biochemical
# [1] = molecular target: T1, JNK3 (Homo sapiens, UniProt P53779); assay: JNK3 enzymatic inhibitory activity (IC50)
# Excerpt: In an effort to reduce the molecular weight, the piperidine ring was diversified into pyrrolidine and azetidine with less carbon atoms.
# [2] = molecular target: T2, GSK3β (Homo sapiens, UniProt P49841); assay: GSK3β enzymatic activity (IC50), Reaction Biology Kinase HotSpot
# T2 construct: purchased Reaction Biology Corp. (Kinase HotSpot service)
# T2 sequence (P49841 whole entry): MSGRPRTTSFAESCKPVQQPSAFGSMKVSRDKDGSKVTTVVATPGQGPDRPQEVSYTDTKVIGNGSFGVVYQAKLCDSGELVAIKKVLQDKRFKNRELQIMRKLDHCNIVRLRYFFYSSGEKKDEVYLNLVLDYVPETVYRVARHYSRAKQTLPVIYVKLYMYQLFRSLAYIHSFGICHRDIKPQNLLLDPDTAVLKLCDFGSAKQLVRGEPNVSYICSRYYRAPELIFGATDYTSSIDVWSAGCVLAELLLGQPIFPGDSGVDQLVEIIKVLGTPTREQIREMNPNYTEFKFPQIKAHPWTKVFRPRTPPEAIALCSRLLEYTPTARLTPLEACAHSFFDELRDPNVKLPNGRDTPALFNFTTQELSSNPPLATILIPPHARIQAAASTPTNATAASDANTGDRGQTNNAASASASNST
# [3] = molecular target: T1, JNK3; assay: Kinase panel screening, single dose 10 μM, in duplicate: JNK3; settings: read-out: inhibitory activity on JNK3
# Method: (§1) Next, we used kinase panel screening in duplicate for compound 7a over 38 different kinases at a single-dose concentration of 10 μM (Table 2). The compound was indeed a selective JNK3 inhibitor with an excellent selectivity profile.
# [4] = test system: 38 selected protein kinases; assay: Kinase panel screening, single dose 10 μM, in duplicate: other kinases of the 38-kinase panel
# Method: as §1
# [5] = enzymatic activity, Table 1, read-out: JNK3 IC50
# T1 sequence (P53779 whole entry): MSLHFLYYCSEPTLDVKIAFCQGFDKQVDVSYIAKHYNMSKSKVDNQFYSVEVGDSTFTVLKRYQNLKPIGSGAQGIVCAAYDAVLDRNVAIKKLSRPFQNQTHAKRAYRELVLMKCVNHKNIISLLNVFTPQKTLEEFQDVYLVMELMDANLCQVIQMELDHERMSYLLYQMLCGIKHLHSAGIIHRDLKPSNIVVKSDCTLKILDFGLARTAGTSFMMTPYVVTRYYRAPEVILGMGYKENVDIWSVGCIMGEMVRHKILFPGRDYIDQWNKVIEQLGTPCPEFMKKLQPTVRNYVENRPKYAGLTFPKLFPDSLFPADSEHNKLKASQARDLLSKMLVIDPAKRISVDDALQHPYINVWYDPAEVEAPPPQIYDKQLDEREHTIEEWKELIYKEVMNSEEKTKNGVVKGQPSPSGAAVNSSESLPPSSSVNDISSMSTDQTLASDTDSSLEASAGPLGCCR
"IC50 [1, 5] [µM]",SMILES,other results
1.46,NC(=O)Cc1cc(-c2ccc(Cl)c(Cl)c2)n(-c2ccnc(N[C@H]3CCCN(C(=O)C4CC4)C3)n2)n1 [11a],–
5.58,N#CCc1cc(-c2ccc3c(c2)OCO3)n(-c2ccnc(NC3CN(C(=O)C4CC4)C3)n2)n1 [10c],–
8.57,N#CCc1cc(-c2ccc3c(c2)OCO3)n(-c2ccnc(N[C@H]3CCN(C(=O)C4CC4)C3)n2)n1 [9c],–
2.9,N#CCc1cc(-c2ccc3ccccc3c2)n(-c2ccnc(N[C@H]3CCN(C(=O)C4CC4)C3)n2)n1 [9b],–
2.84,N#CCc1cc(-c2ccc(Cl)c(Cl)c2)n(-c2ccnc(NC3CN(C(=O)C4CC4)C3)n2)n1 [10a],–
3.25,N#CCc1cc(-c2ccc3c(c2)CCO3)n(-c2ccnc(N[C@H]3CCN(C(=O)C4CC4)C3)n2)n1 [9d],–
0.903,COC(=O)Cc1cc(-c2ccc(Cl)c(Cl)c2)n(-c2ccnc(N[C@H]3CCCN(C(=O)C4CC4)C3)n2)n1 [12a],–
2.07,N#CCc1cc(-c2ccc3ccccc3c2)n(-c2ccnc(NC3CN(C(=O)C4CC4)C3)n2)n1 [10b],–

# Continued, compound first:
SMILES,"IC50 [1, 5] [µM]",other results
N#CCc1cc(-c2ccc3c(c2)CCO3)n(-c2ccnc(N[C@H]3CCCN(C(=O)C4CC4)C3)n2)n1 [7d],7.9,–
N#CCc1cc(-c2ccc3ccccc3c2)n(-c2ccnc(N[C@H]3CCCN(C(=O)C4CC4)C3)n2)n1 [7b],0.824,–
N#CCc1cc(-c2ccc(Cl)c(Cl)c2)n(-c2ccnc(N[C@H]3CCN(C(=O)C4CC4)C3)n2)n1 [9a],–,IC50 [1]: 3.11 µM
N#CCc1cc(-c2ccc3c(c2)CCO3)n(-c2ccnc(N[C@@H]3CCN(C(=O)C4CC4)C3)n2)n1 [8d],4.42,–
N#CCc1cc(-c2ccc([N+](=O)[O-])cc2)n(-c2ccnc(N[C@H]3CCCN(C(=O)C4CC4)C3)n2)n1 [7f],> 10,–
N#CCc1cc(-c2cccc([N+](=O)[O-])c2)n(-c2ccnc(N[C@@H]3CCN(C(=O)C4CC4)C3)n2)n1 [8e],> 10,–
N#CCc1cc(-c2ccc3c(c2)OCO3)n(-c2ccnc(N[C@H]3CCCN(C(=O)C4CC4)C3)n2)n1 [7c],4.6,–
N#CCc1cc(-c2ccc(Cl)c(Cl)c2)n(-c2ccnc(N[C@H]3CCCN(C(=O)C4CC4)C3)n2)n1 [7a],0.635,"IC50 ([2]; Table 2, Kinase HotSpot service, read-out: Compound IC50* on GSK3β): 3.96 µM; selectivity for JNK3 over GSK3β in terms of IC50 ([2]; ratio of IC50 GSK3β / JNK3): six fold selective; inhibition at 10 µM [3]: 90%; inhibition activity for most other kinases except GSK3β [4]: less than 20%"
N#CCc1cc(-c2ccc3c(c2)OCO3)n(-c2ccnc(N[C@@H]3CCN(C(=O)C4CC4)C3)n2)n1 [8c],2.18,–
N#CCc1cc(-c2ccc3ccccc3c2)n(-c2ccnc(N[C@@H]3CCN(C(=O)C4CC4)C3)n2)n1 [8b],0.361,–
"N#CCc1cc(-c2ccc(Cl)c(Cl)c2)n(-c2ccnc(N[C@@H]3CCN(C(=O)C4CC4)C3)n2)n1 [8a, (R)-2-(1-(2-((1-(cyclopropanecarbonyl)pyrrolidin-3-yl)amino)pyrimidin-4-yl)-5-(3,4-dichlorophenyl)-1H-pyrazol-3-yl)acetonitrile]",–,IC50 [1]: 0.227 µM
N#CCc1cc(-c2ccc([N+](=O)[O-])cc2)n(-c2ccnc(N[C@@H]3CCN(C(=O)C4CC4)C3)n2)n1 [8f],7.89,–
